Columns and labels:
SSAT = assay: Hepatic, pancreatic and renal SSAT activity in syngenic and metallothionein-SSAT mice after analogue; format: in vivo, mouse; details: 24 h before sacrifice
Description: (§1) α-methylspermidine, Bis-α-methylspermine and α-methylspermine were administered in saline. […] The data are expressed as means ±S.D. For statistical analysis, the two-tailed Student's t test was used.

[1] = system: syngenic and metallothionein-SSAT mice; assay: Hepatic, pancreatic and renal polyamine concentration in syngenic and metallothionein-SSAT mice after analogue; format: in vivo, mouse; details: Sg (syngenic) mice, 24 h before sacrifice
Description: as §1

[2] = Tg (transgenic) mice, 12.5 mg/kg
[3] = Tg (transgenic) mice, 37.5 mg/kg

CC(N)CCNCCCCNCCC(C)N (stereo not drawn) [bis-α-methylspermine, 1,12-dimethylspermine]
SSAT activity, Kidney (SSAT; Sg (syngenic) mice, 12.5 mg/kg): 0.32 ± 0.14 ^++ pmoles/10 min/ tissue wet weight | SSAT activity, Pancreas (SSAT; Sg (syngenic) mice, 12.5 mg/kg): 3.38 pmoles/10 min/ tissue wet weight | SSAT activity, Kidney (SSAT; Sg (syngenic) mice, 25 mg/kg): 0.58 ± 0.43 ^+ pmoles/10 min/ tissue wet weight | SSAT activity, Pancreas (SSAT; Sg (syngenic) mice, 25 mg/kg): 4.23 pmoles/10 min/ tissue wet weight | SSAT activity, Kidney (SSAT; Sg (syngenic) mice, 37.5 mg/kg): 0.33 ± 0.14 ^+ pmoles/10 min/ tissue wet weight | SSAT activity, Pancreas (SSAT; Sg (syngenic) mice, 37.5 mg/kg): 3.18 pmoles/10 min/ tissue wet weight | SSAT activity, Kidney (SSAT; Sg (syngenic) mice, 50 mg/kg): 0.60 ± 0.19 ^+ pmoles/10 min/ tissue wet weight | SSAT activity, Pancreas (SSAT; Sg (syngenic) mice, 50 mg/kg): 8.44 pmoles/10 min/ tissue wet weight | SSAT activity, Kidney (SSAT; [2]): 0.72 ± 0.24 pmoles/10 min/ tissue wet weight | SSAT activity, Liver (SSAT; [2]): 6.56 pmoles/10 min/ tissue wet weight | SSAT activity, Pancreas (SSAT; [2]): 34.11 pmoles/10 min/ tissue wet weight | SSAT activity, Kidney (SSAT; Tg (transgenic) mice, 25 mg/kg): 1.48 ± 0.92 pmoles/10 min/ tissue wet weight | SSAT activity, Liver (SSAT; Tg (transgenic) mice, 25 mg/kg): 9.08 pmoles/10 min/ tissue wet weight | SSAT activity, Pancreas (SSAT; Tg (transgenic) mice, 25 mg/kg): 65.20 pmoles/10 min/ tissue wet weight | SSAT activity, Kidney (SSAT; [3]): 8.04 ± 14.36 pmoles/10 min/ tissue wet weight | SSAT activity, Liver (SSAT; [3]): 55.79 pmoles/10 min/ tissue wet weight | SSAT activity, Pancreas (SSAT; [3]): 124.95 pmoles/10 min/ tissue wet weight | SSAT activity, Kidney (SSAT; Tg (transgenic) mice, 50 mg/kg): 1.24 ± 0.39 pmoles/10 min/ tissue wet weight | SSAT activity, Liver (SSAT; Tg (transgenic) mice, 50 mg/kg): 13.11 pmoles/10 min/ tissue wet weight | SSAT activity, Pancreas (SSAT; Tg (transgenic) mice, 50 mg/kg): 62.05 pmoles/10 min/ tissue wet weight | hepatic concentration, Bis-α-Methylspermine ([1]; 12.5 mg/kg): 159.88 pmoles/mg tissue wet weight | hepatic polyamine concentration, N^8-Acetylspermidine ([1]; 12.5 mg/kg): 0.75 pmoles/mg tissue wet weight | hepatic polyamine concentration, Putrescine ([1]; 12.5 mg/kg): 92.42 pmoles/mg tissue wet weight | hepatic polyamine concentration, Spermidine ([1]; 12.5 mg/kg): 927.28 pmoles/mg tissue wet weight | hepatic polyamine concentration, Spermine ([1]; 12.5 mg/kg): 708.04 pmoles/mg tissue wet weight | pancreatic concentration, Bis-α-Methylspermine ([1]; 12.5 mg/kg): 259.30 ± 10.04 pmoles/mg tissue wet weight | pancreatic polyamine concentration, N^8-Acetylspermidine ([1]; 12.5 mg/kg): 60.41 pmoles/mg tissue wet weight | pancreatic polyamine concentration, Putrescine ([1]; 12.5 mg/kg): 298.55 ± 75.14 *^+ pmoles/mg tissue wet weight | pancreatic polyamine concentration, Spermidine ([1]; 12.5 mg/kg): 6575.15 ± 614.21 ^+ pmoles/mg tissue wet weight | pancreatic polyamine concentration, Spermine ([1]; 12.5 mg/kg): 981.28 ± 201.81 ^+ pmoles/mg tissue wet weight | renal concentration, Bis-α-Methylspermine ([1]; 12.5 mg/kg): 259.30 pmoles/mg tissue wet weight | renal polyamine concentration, N^1-Acetylspermidine ([1]; 12.5 mg/kg): 33.17 pmoles/mg tissue wet weight | renal polyamine concentration, N^8-Acetylspermidine ([1]; 12.5 mg/kg): 17.62 ± 6.43 pmoles/mg tissue wet weight | renal polyamine concentration, Putrescine ([1]; 12.5 mg/kg): 142.47 pmoles/mg tissue wet weight | renal polyamine concentration, Spermidine ([1]; 12.5 mg/kg): 246.29 pmoles/mg tissue wet weight | renal polyamine concentration, Spermine ([1]; 12.5 mg/kg): 456.65 pmoles/mg tissue wet weight | hepatic concentration, Bis-α-Methylspermine ([1]; 25 mg/kg): 317.22 pmoles/mg tissue wet weight | hepatic polyamine concentration, N^8-Acetylspermidine ([1]; 25 mg/kg): 2.38 pmoles/mg tissue wet weight | hepatic polyamine concentration, Putrescine ([1]; 25 mg/kg): 73.69 pmoles/mg tissue wet weight | hepatic polyamine concentration, Spermidine ([1]; 25 mg/kg): 879.17 pmoles/mg tissue wet weight | hepatic polyamine concentration, Spermine ([1]; 25 mg/kg): 699.86 pmoles/mg tissue wet weight | pancreatic concentration, Bis-α-Methylspermine ([1]; 25 mg/kg): 343.17 ± 35.11 pmoles/mg tissue wet weight | pancreatic polyamine concentration, Putrescine ([1]; 25 mg/kg): 467.21 ± 419.85^++ pmoles/mg tissue wet weight | pancreatic polyamine concentration, Spermidine ([1]; 25 mg/kg): 5733.90 ± 300.80 ^+ pmoles/mg tissue wet weight | pancreatic polyamine concentration, Spermine ([1]; 25 mg/kg): 528.55 ± 241.57 ^+ pmoles/mg tissue wet weight | renal concentration, Bis-α-Methylspermine ([1]; 25 mg/kg): 343.17 pmoles/mg tissue wet weight | renal polyamine concentration, N^1-Acetylspermidine ([1]; 25 mg/kg): 28.39 pmoles/mg tissue wet weight | renal polyamine concentration, N^8-Acetylspermidine ([1]; 25 mg/kg): 17.70 ± 10.63 pmoles/mg tissue wet weight | renal polyamine concentration, Putrescine ([1]; 25 mg/kg): 87.46 pmoles/mg tissue wet weight | renal polyamine concentration, Spermidine ([1]; 25 mg/kg): 257.13 pmoles/mg tissue wet weight | renal polyamine concentration, Spermine ([1]; 25 mg/kg): 459.99 pmoles/mg tissue wet weight | hepatic concentration, Bis-α-Methylspermine ([1]; 37.5 mg/kg): 283.40 pmoles/mg tissue wet weight | hepatic polyamine concentration, N^1-Acetylspermidine ([1]; 37.5 mg/kg): 14.57 pmoles/mg tissue wet weight | hepatic polyamine concentration, N^8-Acetylspermidine ([1]; 37.5 mg/kg): 2.10 pmoles/mg tissue wet weight | hepatic polyamine concentration, Putrescine ([1]; 37.5 mg/kg): 96.27 pmoles/mg tissue wet weight | hepatic polyamine concentration, Spermidine ([1]; 37.5 mg/kg): 772.68 pmoles/mg tissue wet weight | hepatic polyamine concentration, Spermine ([1]; 37.5 mg/kg): 754.59 pmoles/mg tissue wet weight | pancreatic concentration, Bis-α-Methylspermine ([1]; 37.5 mg/kg): 415.40 ± 92.86 pmoles/mg tissue wet weight | pancreatic polyamine concentration, N^1-Acetylspermidine ([1]; 37.5 mg/kg): 123.67 pmoles/mg tissue wet weight | pancreatic polyamine concentration, N^8-Acetylspermidine ([1]; 37.5 mg/kg): 55.34 pmoles/mg tissue wet weight | pancreatic polyamine concentration, Putrescine ([1]; 37.5 mg/kg): 233.06 ± 45.81 *^+ pmoles/mg tissue wet weight | pancreatic polyamine concentration, Spermidine ([1]; 37.5 mg/kg): 5997.63 ± 24.26 ^+ pmoles/mg tissue wet weight | pancreatic polyamine concentration, Spermine ([1]; 37.5 mg/kg): 708.66 ± 179.23 ^++ pmoles/mg tissue wet weight | renal concentration, Bis-α-Methylspermine ([1]; 37.5 mg/kg): 415.40 pmoles/mg tissue wet weight | renal polyamine concentration, N^1-Acetylspermidine ([1]; 37.5 mg/kg): 28.73 pmoles/mg tissue wet weight | renal polyamine concentration, N^8-Acetylspermidine ([1]; 37.5 mg/kg): 15.95 ± 6.92 pmoles/mg tissue wet weight | renal polyamine concentration, Putrescine ([1]; 37.5 mg/kg): 93.95 pmoles/mg tissue wet weight | renal polyamine concentration, Spermidine ([1]; 37.5 mg/kg): 289.83 pmoles/mg tissue wet weight | renal polyamine concentration, Spermine ([1]; 37.5 mg/kg): 513.58 pmoles/mg tissue wet weight | hepatic concentration, Bis-α-Methylspermine ([1]; 50 mg/kg): 379.77 pmoles/mg tissue wet weight | hepatic polyamine concentration, N^8-Acetylspermidine ([1]; 50 mg/kg): 8.72 pmoles/mg tissue wet weight | hepatic polyamine concentration, Putrescine ([1]; 50 mg/kg): 52.40 pmoles/mg tissue wet weight | hepatic polyamine concentration, Spermidine ([1]; 50 mg/kg): 688.44 pmoles/mg tissue wet weight | hepatic polyamine concentration, Spermine ([1]; 50 mg/kg): 687.71 pmoles/mg tissue wet weight | pancreatic concentration, Bis-α-Methylspermine ([1]; 50 mg/kg): 459.26 ± 18.65 pmoles/mg tissue wet weight

Source: patent publication US7202280B2, “Methods for the treatment and prevention of pancreatitis and for induction of liver regeneration” (priority 2002, dated 2007)
